Source: patent publication US12258329B2 (Merck Sharp & Dohme LLC, priority 2018, dated 2025)

Tested on: infected PBMCs (VSV-G pseudotyped HIV virus VSV-G/pNLG1-P2A-ΔEnv)
Assay: cells
Format: cell-based, human
Conditions: Homo sapiens, PBMC, read-out: TACK EC50

SMILES | EC50
Cc1nc(C)c(Cn2cnc(C(F)(F)C(F)(F)F)c(Oc3cc(Cl)cc(C#N)c3F)c2=O)c(=O)[nH]1 [Example 87, 5-chloro-3-((1-((2,4-dimethyl-6-oxo-1,6-dihydropyrimidin-5-yl)methyl)-6-oxo-4-(perfluoroethyl)-1,6-dihydropyrimidin-5-yl)oxy)-2-fluorobenzonitrile] | 218 nM
Cc1nc(C)c(Cn2cnc(C(F)(F)F)c(Oc3cc(Br)cc(C#N)c3Cl)c2=O)c(=O)[nH]1 [Example 89, 5-bromo-2-chloro-3-((1-((2,4-dimethyl-6-oxo-1,6-dihydro-pyrimidin-5-yl)methyl)-6-oxo-4-(trifluoromethyl)-1,6-dihydropyrimidin-5-yl)oxy) benzonitrile] | 434 nM
Cc1nc(C)c(Cn2cnc(C(C)(F)F)c(Oc3cc(Cl)cc(C#N)c3F)c2=O)c(=O)[nH]1 [Example 22, 5-Chloro-3-((4-(1,1-difluoroethyl)-1-((2,4-dimethyl-6-oxo-1,6-dihydropyrimidin-5-yl)methyl)-6-oxo-1,6-dihydropyrimidin-5-yl)oxy)-2-fluorobenzonitrile] | 181 nM
COc1c(C#N)cc(C(F)F)cc1Oc1c(C(F)(F)C(F)F)ncn(Cc2cnc(C)[nH]c2=O)c1=O [Example 1, 5-(difluoromethyl)-2-methoxy-3-((1-((2-methyl-6-oxo-1,6-dihydropyrimidin-5-yl)methyl)-6-oxo-4-(1,1,2,2-tetrafluoroethyl)-1,6-dihydropyrimidin-5-yl)oxy)benzonitrile] | 431 nM
Cc1nc(C(C)O)[nH]c(=O)c1Cn1cnc(C(F)(F)C(F)F)c(Oc2cc(Cl)cc(C#N)c2F)c1=O (single isomer, unassigned) [Example 44] | 333 nM
Cc1nc(C(C)O)[nH]c(=O)c1Cn1cnc(C(F)(F)C(F)F)c(Oc2cc(C(F)F)cc(C#N)c2C)c1=O (single isomer, unassigned) [Example 53, 5-(difluoromethyl)-3-((1-((2-(1-hydroxyethyl)-4-methyl-6-oxo-1,6-dihydropyrimidin-5-yl)methyl)-6-oxo-4-(1,1,2,2-tetrafluoroethyl)-1,6-dihydropyrimidin-5-yl)oxy)-2-methylbenzonitrile] | 392 nM
COCCCc1nc(C)c(Cn2cnc(C(F)(F)C(F)(F)F)c(Oc3cc(Cl)cc(C#N)c3F)c2=O)c(=O)[nH]1 [Example 55, 5-chloro-2-fluoro-3-((1-((2-(3-methoxypropyl)-4-methyl-6-oxo-1,6-dihydropyrimidin-5-yl)methyl)-6-oxo-4-(perfluoroethyl)-1,6-dihydropyrimidin-5-yl)oxy)benzonitrile] | 276 nM
Cc1nc(C)c(Cn2cnc(C(C)(F)F)c(Oc3cc(Cl)cc(C#N)c3C)c2=O)c(=O)[nH]1 [Example 4, 5-chloro-3-((4-(1,1-difluoroethyl)-1-((2,4-dimethyl-6-oxo-1,6-dihydropyrimidin-5-yl)methyl)-6-oxo-1,6-dihydropyrimidin-5-yl)oxy)-2-methylbenzonitrile] | 412 nM
Cc1nc(C)c(Cn2cnc(C(C)F)c(Oc3c(C)cc(C#N)cc3C)c2=O)c(=O)[nH]1 (single isomer, unassigned) [Example 43, (S) or (R)-4-((1-((2,4-dimethyl-6-oxo-1,6-dihydropyrimidin-5-yl)methyl)-4-(1-fluoroethyl)-6-oxo-1,6-dihydropyrimidin-5-yl)oxy)-3,5-dimethylbenzonitrile] | 438 nM
Cc1c(C#N)cc(C(F)F)cc1Oc1c(C(F)(F)C(F)F)ncn(Cc2cnc(CCCO)[nH]c2=O)c1=O [Example 46, 5-(difluoromethyl)-3-((1-((2-(3-hydroxypropyl)-6-oxo-1,6-dihydropyrimidin-5-yl)methyl)-6-oxo-4-(1,1,2,2-tetrafluoroethyl)-1,6-dihydropyrimidin-5-yl)oxy)-2-methylbenzonitrile] | 303 nM
Cc1nc(C)c(Cn2cnc(C(F)(F)F)c(Oc3c(C)cc(C#N)cc3C)c2=O)c(=O)[nH]1 [Example 77, 4-((1-((2,4-dimethyl-6-oxo-1,6-dihydropyrimidin-5-yl)methyl)-6-oxo-4-(trifluoromethyl)-1,6-dihydropyrimidin-5-yl)oxy)-3,5-dimethylbenzonitrile] | 409 nM
Cc1nc(CCCO)[nH]c(=O)c1Cn1cnc(C(F)(F)C(F)F)c(Oc2cc(C(F)F)cc(C#N)c2C)c1=O [Example 49, 5-(difluoromethyl)-3-((1-((2-(3-hydroxypropyl)-4-methyl-6-oxo-1,6-dihydropyrimidin-5-yl)methyl)-6-oxo-4-(1,1,2,2-tetrafluoroethyl)-1,6-dihydropyrimidin-5-yl)oxy)-2-methylbenzonitrile] | 278 nM
Cc1nc(C)c(Cn2cnc(C(C)(F)F)c(Oc3c(C)cc(C#N)cc3C(F)(F)F)c2=O)c(=O)[nH]1 [Example 16, 4-((4-(1,1-difluoroethyl)-1-((4-hydroxy-2,6-dimethylpyrimidin-5-yl)methyl)-6-oxo-1,6-dihydropyrimidin-5-yl)oxy)-3-methyl-5-(trifluoromethyl)benzonitrile] | 199 nM
Cc1nc[nH]c(=O)c1Cn1cnc(C(F)(F)C(F)F)c(Oc2cc(C(F)F)cc(C#N)c2C)c1=O [Example 79, 5-(difluoromethyl)-2-methyl-3-((1-((4-methyl-6-oxo-1,6-dihydropyrimidin-5-yl)methyl)-6-oxo-4-(1,1,2,2-tetra-fluoroethyl)-1,6-dihydropyrimidin-5-yl)oxy)benzonitrile] | 460 nM
Cc1nc(C)c(Cn2cnc(C(F)(F)C(F)F)c(Oc3cc(Cl)cc(C#N)c3N)c2=O)c(=O)[nH]1 [Example 27, 2-amino-5-chloro-3-((1-((2,4-dimethyl-6-oxo-1,6-dihydropyrimidin-5-yl)methyl)-6-oxo-4-(1,1,2,2-tetrafluoroethyl)-1,6-dihydropyrimidin-5-yl)oxy)benzonitrile] | 451 nM
Cc1nc(N)c(Cn2cnc(C(C)(F)F)c(Oc3cc(Cl)cc(C#N)c3F)c2=O)c(=O)[nH]1 [Example 58, 3-((1-((4-amino-2-methyl-6-oxo-1,6-dihydropyrimidin-5-yl)methyl)-4-(1,1-difluoroethyl)-6-oxo-1,6-dihydropyrimidin-5-yl)oxy)-5-chloro-2-fluorobenzonitrile] | 252 nM
Cc1cc(C#N)c(Cl)c(Oc2c(C(F)(F)C(F)F)ncn(Cc3c(C)nc(C)[nH]c3=O)c2=O)c1 [Example 68, 2-chloro-3-((1-((2,4-dimethyl-6-oxo-1,6-dihydropyrimidin-5-yl)methyl)-6-oxo-4-(1,1,2,2-tetrafluoroethyl)-1,6-dihydropyrimidin-5-yl)oxy)-5-methylbenzonitrile] | 478 nM
Cc1ncc(Cn2cnc(C(F)(F)C(F)(F)F)c(Oc3cc(C(F)F)cc(C#N)c3C)c2=O)c(=O)[nH]1 [Example 67, 5-(difluoromethyl)-2-methyl-3-((1-((2-methyl-6-oxo-1,6-dihydropyrimidin-5-yl)methyl)-6-oxo-4-(perfluoroethyl)-1,6-dihydropyrimidin-5-yl)oxy)benzonitrile] | 174 nM
Cc1nc(C)c(Cn2cnc(C(F)(F)C(F)F)c(Oc3c(C)cc(C#N)cc3C3CC3)c2=O)c(=O)[nH]1 [Example 19, 3-cyclopropyl-4-((1-((2,4-dimethyl-6-oxo-1,6-dihydropyrimidin-5-yl)methyl)-6-oxo-4-(1,1,2,2-tetrafluoroethyl)-1,6-dihydropyrimidin-5-yl)oxy)-5-methylbenzonitrile] | 315 nM
Cc1nc(C)c(Cn2cnc(C(C)F)c(Oc3c(C)cc(C#N)cc3Cl)c2=O)c(=O)[nH]1 (single isomer, unassigned) [Example 18, (S) or (R)-3-chloro-4-((1-((2,4-dimethyl-6-oxo-1,6-dihydropyrimidin-5-y1)methyl)-4-(1-fluoroethyl)-6-oxo-1,6-dihydropyrimidin-5-yl)oxy)-5-methylbenzonitrile] | 129 nM
COc1c(C#N)cc(C(F)F)cc1Oc1c(C(F)(F)C(F)F)ncn(Cc2c(C)nc(C)[nH]c2=O)c1=O [Example 10, 5-(difluoromethyl)-3-((1-((2,4-dimethyl-6-oxo-1,6-dihydropyrimidin-5-y1)methyl)-6-oxo-4-(1,1,2,2-tetrafluoroethyl)-1,6-dihydropyrimidin-5-y1)oxy)-2-methoxybenzonitrile] | 146 nM
Cc1cc(C#N)c(F)c(Oc2c(C(F)(F)C(F)F)ncn(Cc3c(C)nc(C)[nH]c3=O)c2=O)c1 [Example 40, 3-((1-((2,4-dimethyl-6-oxo-1,6-dihydropyrimidin-5-yl)methyl)-6-oxo-4-(1,1,2,2-tetrafluoroethyl)-1,6-dihydropyrimidin-5-yl)oxy)-2-fluoro-5-methylbenzonitrile] | 198 nM
Cc1nc(CO)[nH]c(=O)c1Cn1cnc(C(F)(F)C(F)F)c(Oc2cc(Cl)cc(C#N)c2F)c1=O [Example 45, 5-chloro-2-fluoro-3-((1-((2-(hydroxymethyl)-4-methyl-6-oxo-1,6-dihydropyrimidin-5-yl)methyl)-6-oxo-4-(1,1,2,2-tetrafluoroethyl)-1,6-dihydropyrimidin-5-yl)oxy)benzonitrile] | 257 nM
Cc1nc(C)c(Cn2cnc(C(C)(F)F)c(Oc3cc(C(F)F)cc(C#N)c3F)c2=O)c(=O)[nH]1 [Example 15, 3-((4-(1,1-difluoroethyl)-1-((2,4-dimethyl-6-oxo-1,6-dihydropyrimidin-5-yl)methyl)-6-oxo-. 1,6-dihydropyrimidin-5-yl)oxy)-5-(difluoromethyl)-2-fluorobenzonitrile] | 245 nM
Cc1nc(CO)[nH]c(=O)c1Cn1cnc(C(F)(F)C(F)F)c(Oc2cc(C(F)F)cc(C#N)c2C)c1=O [Example 48, 5-(difluoromethyl)-3-((1-((2-(hydroxymethyl)-4-methyl-6-oxo-1,6-dihydropyrimidin-5-yl)methyl)-6-oxo-4-(1,1,2,2-tetrafluoroethyl)-1,6-dihydropyrimidin-5-yl)oxy)-2-methylbenzonitrile] | 342 nM
Cc1nc(C)c(Cn2cnc(C(F)(F)C(F)F)c(Oc3c(Cl)cc(C#N)cc3Cl)c2=O)c(=O)[nH]1 [Example 97, 3,5-dichloro-4-((1-((2,4-dimethyl-6-oxo-1,6-dihydropyrimidin-5-yl)methyl)-6-oxo-4-(1,1,2,2-tetrafluoroethyl)-1,6-dihydropyrimidin-5-yl)oxy)benzonitrile] | 182 nM
